How the values were obtained:
[1] = test system: "Clear and Detox" module genes; assay: Eigengene of "Clear and Detox" co-expression module (FIG. 8); conditions: cultured human keratinocytes
skin barrier formation = assay: Eigengene analysis, skin barrier formation, treated cultured human keratinocytes; assay type: cell-based
[2] = test system: "Repair and Rebuild" associated genes; assay: Eigengene of "Repair and Rebuild" co-expression module (FIG. 9); conditions: cultured human keratinocytes

| Substance | effect on "Clear and Detox" eigengene (FIG. 8) [1] | successful aging effect in skin barrier formation (skin barrier formation) | effect on "Repair and Rebuild" eigengene (FIG. 9) [2] |
| --- | --- | --- | --- |
| palmitoyl-lysine-threonine [Pal-KT] | significantly up-regulates | Effects relating to successful aging were also identified |  |
| palmitoyl-lysine-threonine-threonine-lysine-serine [Pal-KTTKS] |  |  | significantly up-regulate |
